pIC50: −log10 of the molar value. ≈ marks a conversion by molar mass, not a printed value.
Legend:
[1] = biological target: CYP3A4 (Homo sapiens, UniProt P08684); assay: Metabolic stability of in DMSO solution assessed as human CYP3A4-mediated drug degdaradtion by measuring compound remaining at 1 uM after 1 hr in presence of human CYP3A4 and NADPH; assay type: ADME; settings: human CYP3A4 enzyme, read-out: Stability
[2] = Solubility of the compound at pH 3 to 7.4 after 24 hrs; assay type: physicochemical; settings: buffer; for solubility: pH 3, 24 h; for solubility at 24 h: pH 3
[3] = Inhibition of canonical Wnt pathway in human DBTRG-05-MG cells after 36 hrs by TCF-luciferase and TA-renilla dual-luciferase reporter assay; assay type: cell-based; settings: for pIC50: Homo sapiens, DBTRG-05MG, 36 h, read-out: IC50
[4] = Permeability of the compound by PAMPA; assay type: physicochemical; settings: read-out: permeability

Chain of CYP3A4 (P08684 whole entry): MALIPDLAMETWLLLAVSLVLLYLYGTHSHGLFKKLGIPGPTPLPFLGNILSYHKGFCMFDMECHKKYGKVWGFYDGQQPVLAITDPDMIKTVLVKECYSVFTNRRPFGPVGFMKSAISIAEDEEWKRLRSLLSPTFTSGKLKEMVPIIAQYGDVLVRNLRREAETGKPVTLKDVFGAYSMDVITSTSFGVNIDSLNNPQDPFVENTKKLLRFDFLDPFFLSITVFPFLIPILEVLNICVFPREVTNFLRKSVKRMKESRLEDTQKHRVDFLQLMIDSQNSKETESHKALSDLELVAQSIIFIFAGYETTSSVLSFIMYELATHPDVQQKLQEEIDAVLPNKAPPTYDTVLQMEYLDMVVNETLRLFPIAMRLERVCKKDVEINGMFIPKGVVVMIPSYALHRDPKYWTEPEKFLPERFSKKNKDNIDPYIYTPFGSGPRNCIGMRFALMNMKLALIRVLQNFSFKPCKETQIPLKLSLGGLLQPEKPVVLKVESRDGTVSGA

SMILES: Cc1cc(-c2cnc(N3CCOCC3)nc2-c2ccc(C)s2)on1
- remaining at 1 h, 1 µM [1]: < 20%
- solubility [2]: Insoluble
- pIC50 [3]: 5.07

SMILES: Cc1cc(-c2cnc(N3CCCC3)nc2-c2ccc(C)s2)on1
- remaining at 1 h, 1 µM [1]: < 20%
- solubility [2]: Insoluble
- IC50 [3]: Not Active

SMILES: Cc1cc(-c2cnc(N3CCN(C)CC3)nc2-c2ccc(C)s2)on1
- remaining at 1 h, 1 µM [1]: 51%
- solubility at 24 h [2]: 11 µM (≈ 3.91 µg/mL)
- Papp [4]: > 10 ×10⁻⁶ cm/s
- IC50 [3]: Not Active

SMILES: Cc1cc(-c2cnc(N3CC(C)OC(C)C3)nc2-c2ccc(C)s2)on1 (stereo not drawn)
- remaining at 1 h, 1 µM [1]: < 20%
- solubility [2]: Insoluble
- pIC50 [3]: 4.85

SMILES: Cc1cc(-c2cnc(NC(C)C)nc2C2CCN(C(=O)c3ccc(C)s3)CC2)on1
- remaining at 1 h, 1 µM [1]: < 20%
- solubility [2]: Insoluble
- pIC50 [3]: 5.09

SMILES: Cc1cc(-c2cnc(NCc3cccnc3)nc2-c2ccc(C)s2)on1
- remaining at 1 h, 1 µM [1]: < 20%
- solubility at 24 h [2]: 1 µM (≈ 0.363 µg/mL)
- pIC50 [3]: 4.75

SMILES: Cc1cc(-c2cnc(NCc3ccccn3)nc2-c2ccc(C)s2)on1
- remaining at 1 h, 1 µM [1]: < 20%
- solubility at 24 h [2]: 1 µM (≈ 0.363 µg/mL)
- pIC50 [3]: 4.86

SMILES: Cc1cc(-c2cnc(NC(C)C)nc2-c2ccc(C)s2)on1
- remaining at 1 h, 1 µM [1]: 20%
- solubility [2]: Insoluble
- IC50 [3]: Not Active

SMILES: Cc1cc(-c2cnc(NCc3ccc(F)cc3)nc2-c2ccc(C)s2)on1
- remaining at 1 h, 1 µM [1]: 29%
- solubility [2]: Insoluble
- IC50 [3]: Not Active

SMILES: COCCNc1ncc(-c2cc(C)no2)c(-c2ccc(C)s2)n1
- remaining at 1 h, 1 µM [1]: 27%
- solubility [2]: Insoluble
- Papp [4]: > 10 ×10⁻⁶ cm/s
- IC50 [3]: Not Active

SMILES: CC(=O)N1CCC(c2nc(N3CCCC3)ncc2-c2cc(C)no2)CC1
- remaining at 1 h, 1 µM [1]: 59%
- solubility at 24 h [2]: 207 µM (≈ 73.6 µg/mL)
- Papp [4]: > 10 ×10⁻⁶ cm/s
- IC50 [3]: Not Active

SMILES: CC(=O)N1CCC(c2nc(N3CCN(C)CC3)ncc2-c2cc(C)no2)CC1
- remaining at 1 h, 1 µM [1]: 100%
- solubility at 24 h [2]: 225 µM (≈ 86.5 µg/mL)
- Papp [4]: 2 ×10⁻⁶ cm/s
- IC50 [3]: Not Active

SMILES: CC(=O)N1CCC(c2nc(N3CCOCC3)ncc2-c2cc(C)no2)CC1
- remaining at 1 h, 1 µM [1]: 75%
- solubility at 24 h [2]: 211 µM (≈ 78.4 µg/mL)
- Papp [4]: > 10 ×10⁻⁶ cm/s
- pIC50 [3]: 4.97

SMILES: CC(=O)N1CCC(c2nc(NCc3cccnc3)ncc2-c2cc(C)no2)CC1
- remaining at 1 h, 1 µM [1]: < 20%
- solubility at 24 h [2]: 238 µM (≈ 93.4 µg/mL)
- Papp [4]: 2 ×10⁻⁶ cm/s

SMILES: CC(=O)N1CCC(c2nc(NCc3ccccn3)ncc2-c2cc(C)no2)CC1
- remaining at 1 h, 1 µM [1]: 27%
- solubility at 24 h [2]: 221 µM (≈ 86.7 µg/mL)
- Papp [4]: 2 ×10⁻⁶ cm/s
- IC50 [3]: Not Active

SMILES: CC(=O)N1CCC(c2nc(NC(C)C)ncc2-c2cc(C)no2)CC1
- remaining at 1 h, 1 µM [1]: 75%
- solubility at 24 h [2]: 224 µM (≈ 76.9 µg/mL)
- Papp [4]: > 10 ×10⁻⁶ cm/s
- IC50 [3]: Not Active

SMILES: CC(=O)N1CCC(c2nc(NCc3ccc(F)cc3)ncc2-c2cc(C)no2)CC1
- remaining at 1 h, 1 µM [1]: < 20%
- solubility [2]: Insoluble
- Papp [4]: > 10 ×10⁻⁶ cm/s
- IC50 [3]: Not Active

SMILES: COCCNc1ncc(-c2cc(C)no2)c(C2CCN(C(C)=O)CC2)n1
- remaining at 1 h, 1 µM [1]: 84%
- solubility at 24 h [2]: 233 µM (≈ 83.7 µg/mL)
- Papp [4]: 2 ×10⁻⁶ cm/s
- IC50 [3]: Not Active

From ChEMBL document CHEMBL3608302, “Identification of 2-aminopyrimidine derivatives as inhibitors of the canonical Wnt signaling pathway” (Bioorg Med Chem, 2015)
